Results taken from patent publication US6071946A, “Tricyclic urea compounds” (Adir et Compagnie, priority 1994, dated 2000).

Assays:
melatonin receptors = target: T1, melatonin receptors (Ovis aries, UniProt P48040); test: Binding to melatonin receptors, sheep pars tuberalis cells (competition with 2-iodo-melatonin); settings: sheep pars tuberalis membranes
T1 construct: Sheep pars tuberalis membranes are prepared and used as target tissue; from tissue; host or cells: sheep pars tuberalis membranes
T1 sequence (P48040 whole entry): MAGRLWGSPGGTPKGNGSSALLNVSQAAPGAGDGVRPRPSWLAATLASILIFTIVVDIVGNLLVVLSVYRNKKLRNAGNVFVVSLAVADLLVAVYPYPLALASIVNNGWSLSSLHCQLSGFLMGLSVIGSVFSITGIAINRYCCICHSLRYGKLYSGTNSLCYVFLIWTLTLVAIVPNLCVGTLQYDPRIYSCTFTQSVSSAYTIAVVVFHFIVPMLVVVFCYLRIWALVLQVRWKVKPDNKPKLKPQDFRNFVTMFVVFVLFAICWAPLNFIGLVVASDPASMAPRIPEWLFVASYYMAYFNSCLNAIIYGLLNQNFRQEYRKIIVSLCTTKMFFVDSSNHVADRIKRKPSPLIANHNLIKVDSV
Experimental: B1) Study on Sheep Pars Tuberalis Cells
Studies of the binding of the compounds of the invention to melatonin receptors were carried out according to conventional techniques on sheep pars tuberalis cells. The pars tuberalis of the adenohypophysis is in fact characterized, in mammals, by a high density of melatonin receptors (Journal of Neuroendocrinology, 1, pp 1-4, 1989).
1) Sheep pars tuberalis membranes are prepared and used as target tissue in saturation experiments in order to determine the binding capacities and affinities for 2-(^125 I) iodomelatonin.
2) Sheep pars tuberalis membranes are used as target tissue, with the various compounds to be tested, in competitive binding experiments with respect to 2-iodo-melatonin.
Each experiment is carried out in triplicate and a range of different concentrations is tested for each compound.
The results make it possible to determine, after statistical treatment, the binding affinities of the compound tested.

[1] = Foregoing pharmacological Examples (A to I), carbamides or ureas substituted for the compounds of Examples 119 and 131; settings: in place of the compounds of Examples 119 and 131
C3H/He mice = test: Free exploratory test in C3H/He mice; type: in vivo; settings: oral
Experimental: Effects in the free exploratory test in C3H/He mice
Behavior was assessed in a box subdivided into six equal square exploratory units, which were interconnected by small doors. It could be divided in half lengthwise by closing partitions. Twenty-four hours before the test, each animal was randomly placed in one half of the apparatus, with the temporary partitions in place, in order to become familiarized with it. […]
numbers of attempts towards the unfamiliar compartment latency of the first entry into the unfamiliar compartment time spent in the unfamiliar compartment locomotion in the unfamiliar compartment number of rears in the unfamiliar compartment locomotion in the familiar compartment number of rears in the familiar compartment
Compounds were orally administered at doses of […] (in 1% HEC), 40 minutes before the test.
The […] group received the vehicle under the same conditions.

[2] = 40 minutes before test, statistically significant for the 3 tested doses

CC(=O)NCCc1cccc2ccc3c(c12)CC(C)O3 (stereo not shown) [Example 119, 2,3-DIHYDRO-2-METHYL-4-(2-ACETAMIDOETHYL)1-NAPHTHO[2,1-b]-FURAN]
affinity for melatonin receptors (in words) (melatonin receptors): extremely powerful affinity

CNC(=O)NCCc1cccc2ccc3c(c12)CC(C)O3 (stereo not shown) [Example 120, N-[2-(2,3-DIHYDRO-2-METHYL-1-NAPHTHO[2,1-b]FURAN-4-YL)ETHYL]-N'-METHYLUREA]
results in the foregoing pharmacological Examples, compared with the compounds of Examples 119 and 131 [1]: approximately equally statistically-significant results

CC(=O)NCCc1coc2ccc3c(c12)CCCO3 [Example 131, N-[2-(8,9-Dihydro-7H-furo[3,2-f]chromen-1-yl)ethyl]acetamide]
latency of the first entry into the unfamiliar compartment (C3H/He mice; [2]): dose-dependently reduced | locomotion in the unfamiliar compartment (C3H/He mice; [2]): increased the locomotion in the unfamiliar compartment | numbers of attempts towards the unfamiliar compartment (C3H/He mice; [2]): dose-dependently reduced | number of rears in the unfamiliar compartment (C3H/He mice; at 25 mg/kg (highest dose)): significantly increased the number of rears in the unfamiliar compartment | time spent in the unfamiliar compartment (C3H/He mice; at 5 and 25 mg/kg): significantly increased the time spent in the unfamiliar compartment
